# Experimental data reported in the supplement of paper PMC10307832.
# Columns and labels:
# Assay in all cases: relative viability (nuclei count vs DMSO), 5 days (fraction); higher = more cells survive
# NCI-H1793 = test system: NCI-H1793
# Summary of the method: (§1)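 Medians of duplicate plates are given as relative viability. That measure is the nuclei count in treated wells divided by the count in vehicle wells. Counts were taken on 4× images of lung cancer cell lines in 1536-well plates, 5 days after pin-tool dosing the day after seeding with one drug alone or a fixed anchor-drug dose plus five library-drug doses (not always all listed) in √10 steps.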
# SK-LU-1 = test system: SK-LU-1
# Summary of the method: as §1
# NCI-H460 = test system: NCI-H460
# Summary of the method: as §1
# CAL-12T = test system: CAL-12T
# Summary of the method: as §1
# NCI-H2085 = test system: NCI-H2085
# Summary of the method: as §1
# LOU-NH91 = test system: LOU-NH91
# Summary of the method: as §1
# NCI-H838 = test system: NCI-H838
# Summary of the method: as §1
# NCI-H1437 = test system: NCI-H1437
# Summary of the method: as §1
# NCI-H1651 = test system: NCI-H1651
# Summary of the method: as §1
# LU99A = test system: LU99A
# Summary of the method: as §1
# NCI-H2023 = test system: NCI-H2023
# Summary of the method: as §1
# BEN = test system: BEN
# Summary of the method: as §1
# NCI-H1975 = test system: NCI-H1975
# Summary of the method: as §1
# NCI-H1650 = test system: NCI-H1650
# Summary of the method: as §1
# NCI-H1734 = test system: NCI-H1734
# Summary of the method: as §1
# NCI-H1355 = test system: NCI-H1355
# Summary of the method: as §1
# HCC-366 = test system: HCC-366
# Summary of the method: as §1
# COR-L23 = test system: COR-L23
# Summary of the method: as §1
# NCI-H441 = test system: NCI-H441
# Summary of the method: as §1
smiles,measurement,setting,value
O=c1cc(-c2cccc3c2Sc2ccccc2S3)oc(N2CCOCC2)c1 + CC1(C)CCC(c2ccc(Cl)cc2)=C(CN2CCN(c3ccc(C(=O)NS(=O)(=O)c4ccc(N[C@H](CCN5CCOCC5)CSc5ccccc5)c(S(=O)(=O)C(F)(F)F)c4)cc3)CC2)C1 [Navitoclax] (partner 0.5 µM),relative viability,NCI-H1793; first compound 0.08 µM,0.307
same,relative viability,NCI-H1793; first compound 0.253 µM,0.515
same,relative viability,NCI-H1793; first compound 0.8 µM,0.344
same,relative viability,NCI-H1793; first compound 2.53 µM,0.362
same,relative viability,NCI-H1793; first compound 8 µM,0.356
same,relative viability,SK-LU-1; first compound 0.08 µM,0.684
same,relative viability,SK-LU-1; first compound 0.253 µM,0.924
same,relative viability,SK-LU-1; first compound 0.8 µM,0.787
same,relative viability,SK-LU-1; first compound 2.53 µM,1.02
same,relative viability,SK-LU-1; first compound 8 µM,1.09
same,relative viability,NCI-H460; first compound 0.08 µM,1.24
same,relative viability,NCI-H460; first compound 0.8 µM,1.42
same,relative viability,NCI-H460; first compound 2.53 µM,1.23
same,relative viability,CAL-12T; first compound 0.08 µM,1.16
same,relative viability,CAL-12T; first compound 0.253 µM,1.26
same,relative viability,CAL-12T; first compound 0.8 µM,1.48
same,relative viability,CAL-12T; first compound 2.53 µM,1.2
same,relative viability,CAL-12T; first compound 8 µM,1.31
same,relative viability,NCI-H2085; first compound 0.08 µM,1.15
same,relative viability,NCI-H2085; first compound 0.253 µM,1.31
same,relative viability,NCI-H2085; first compound 0.8 µM,1.17
same,relative viability,NCI-H2085; first compound 2.53 µM,1.05
same,relative viability,NCI-H2085; first compound 8 µM,1.07
same,relative viability,LOU-NH91; first compound 0.08 µM,0.711
same,relative viability,LOU-NH91; first compound 0.253 µM,0.68
same,relative viability,LOU-NH91; first compound 0.8 µM,0.573
same,relative viability,LOU-NH91; first compound 2.53 µM,0.59
same,relative viability,LOU-NH91; first compound 8 µM,0.705
same,relative viability,NCI-H838; first compound 0.08 µM,1.11
same,relative viability,NCI-H838; first compound 0.253 µM,1.64
same,relative viability,NCI-H838; first compound 0.8 µM,0.944
same,relative viability,NCI-H838; first compound 2.53 µM,1.02
same,relative viability,NCI-H838; first compound 8 µM,1.09
same,relative viability,NCI-H1437; first compound 0.08 µM,1.08
same,relative viability,NCI-H1437; first compound 0.253 µM,1.58
same,relative viability,NCI-H1437; first compound 0.8 µM,1.09
same,relative viability,NCI-H1437; first compound 2.53 µM,1.11
same,relative viability,NCI-H1437; first compound 8 µM,1.39
same,relative viability,NCI-H1651; first compound 0.08 µM,1.04
same,relative viability,NCI-H1651; first compound 0.253 µM,1.42
same,relative viability,NCI-H1651; first compound 0.8 µM,0.852
same,relative viability,NCI-H1651; first compound 2.53 µM,0.994
same,relative viability,NCI-H1651; first compound 8 µM,1.14
same,relative viability,LU99A; first compound 0.08 µM,0.809
same,relative viability,LU99A; first compound 0.253 µM,0.918
same,relative viability,LU99A; first compound 0.8 µM,0.84
same,relative viability,LU99A; first compound 2.53 µM,0.786
same,relative viability,LU99A; first compound 8 µM,0.958
same,relative viability,NCI-H2023; first compound 0.08 µM,1.04
same,relative viability,NCI-H2023; first compound 0.253 µM,1.12
same,relative viability,NCI-H2023; first compound 0.8 µM,1.04
same,relative viability,NCI-H2023; first compound 2.53 µM,0.943
same,relative viability,NCI-H2023; first compound 8 µM,1.02
same,relative viability,BEN; first compound 0.08 µM,0.0636
same,relative viability,BEN; first compound 0.253 µM,0.0609
same,relative viability,BEN; first compound 0.8 µM,0.0602
same,relative viability,BEN; first compound 2.53 µM,0.0598
same,relative viability,BEN; first compound 8 µM,0.0681
same,relative viability,NCI-H1975; first compound 0.08 µM,1.2
same,relative viability,NCI-H1975; first compound 0.253 µM,1.4
same,relative viability,NCI-H1975; first compound 0.8 µM,1.35
same,relative viability,NCI-H1975; first compound 2.53 µM,1.16
same,relative viability,NCI-H1975; first compound 8 µM,0.997
same,relative viability,NCI-H1650; first compound 0.08 µM,1.05
same,relative viability,NCI-H1650; first compound 0.253 µM,1.21
same,relative viability,NCI-H1650; first compound 0.8 µM,1.12
same,relative viability,NCI-H1650; first compound 2.53 µM,1.17
same,relative viability,NCI-H1650; first compound 8 µM,1.38
same,relative viability,NCI-H1734; first compound 0.08 µM,0.845
same,relative viability,NCI-H1734; first compound 0.253 µM,1.13
same,relative viability,NCI-H1734; first compound 0.8 µM,1.06
same,relative viability,NCI-H1734; first compound 2.53 µM,0.818
same,relative viability,NCI-H1734; first compound 8 µM,1.02
same,relative viability,NCI-H1355; first compound 0.08 µM,0.982
same,relative viability,NCI-H1355; first compound 0.253 µM,1.06
same,relative viability,NCI-H1355; first compound 0.8 µM,0.847
same,relative viability,NCI-H1355; first compound 2.53 µM,0.942
same,relative viability,NCI-H1355; first compound 8 µM,0.685
same,relative viability,HCC-366; first compound 0.08 µM,0.987
same,relative viability,HCC-366; first compound 0.253 µM,1.19
same,relative viability,HCC-366; first compound 0.8 µM,1.07
same,relative viability,HCC-366; first compound 2.53 µM,0.98
same,relative viability,HCC-366; first compound 8 µM,0.996
same,relative viability,COR-L23; first compound 0.08 µM,1.26
same,relative viability,COR-L23; first compound 0.253 µM,1.4
same,relative viability,COR-L23; first compound 0.8 µM,1.07
same,relative viability,COR-L23; first compound 2.53 µM,1.2
same,relative viability,COR-L23; first compound 8 µM,1.47
same,relative viability,NCI-H441; first compound 0.08 µM,1.14
same,relative viability,NCI-H441; first compound 0.253 µM,0.909
same,relative viability,NCI-H441; first compound 0.8 µM,0.523
same,relative viability,NCI-H441; first compound 2.53 µM,0.776
same,relative viability,NCI-H441; first compound 8 µM,0.762
